Data taken from patent US20110275517A1, “SYNERGISTIC HERBICIDAL COMPOSITION CONTAINING A DICAMBA DERIVATIVE AND A […]” (DOW AGROSCIENCES LLC, priority 2010, published 2011).

Experiments:
Type in all cases: in vivo
Details in all cases: rated after 14-21 d
[1] = tested on: CHEAL = Chenopodium album (Common lambsquarters/fat hen); experiment: Greenhouse postemergence foliar herbicidal test on CHEAL
Experimental: (§1) Seeds of the desired test plant species were planted in Sun Gro MetroMix 306 planting mixture, which typically has a pH of 6.0 to 6.8 and an organic matter content of about 30 percent, in plastic pots with a surface area of 103.2 square centimeters (cm^2). […] The plants were grown for 7-36 days (d) in a greenhouse with an approximate 16 hour (h) photoperiod which was maintained at about 28° C. during the day and 26° C. during the night. Nutrients and water were added on a regular basis and supplemental lighting was provided with overhead metal halide 1000-Watt lamps as necessary. The plants were employed for testing when they reached the second or third true leaf stage.
(§2) Treatments consisted of Banvel™ (dicamba dimethylamine salt) and Durango™ herbicide (glyphosate dimethylamine salt) alone and in combinations. An aliquot of
(§3) Banvel^TM (dicamba dimethylamine salt) was placed in 25 milliliter (mL) glass vials and diluted in a volume of water to obtain 1.5 milligrams (mg) active ingredient (ai)/mL concentrated solutions. Subsequent concentrations of Banvel™ (dicamba dimethylamine salt) were obtained by dilution with an equal volume of water. Spray solutions of Durango™ herbicide (glyphosate dimethylamine salt) were prepared following the aforementioned procedure. An aliquot of Durango™ herbicide (glyphosate dimethylamine salt) was placed in 25 milliter (mL) glass vials and mixed in a volume of 100:2 w/w water/ammonium sulfate (AMS) dilution solution to obtain 1.5 milligrams (mg) active ingredient (ai)/mL concentrated solutions.
(§4) Compound requirements are based upon a 12 mL application volume at a rate of 187 liters per hectare (L/ha). Spray solutions of the Banvel^TM (dicamba dimethylamine salt) and Durango™ herbicide (glyphosate dimethylamine salt) were prepared by adding the concentrated solutions to the appropriate amount of dilution solution to form 12 mL spray solution with active ingredients in combination. Banvel™ (dicamba dimethylamine salt) and Durango™ herbicide (glyphosate dimethylamine salt) alone and in combinations were applied to the foliage of plant material with an overhead Mandel track sprayer equipped with 8002E nozzles calibrated to deliver 187 L/ha over an application area of 0.503 square meters (m^2) at a spray height of 18 inches (43 cm) above average plant canopy. Control plants were sprayed in the same manner with the solvent blank.
(§5) The treated plants and control plants were placed in a greenhouse as described above and watered by sub-irrigation to prevent wash-off of the test compounds. After 14-21 d, the condition of the test plants as compared with that of the control plants was determined visually and scored on a scale of 0 to 100 percent where 0 corresponds to no injury and 100 corresponds to complete kill.
(§6) Colby's equation was used to determine the herbicidal effects expected from the mixtures (Colby, S. R. 1967. Calculation of the synergistic and antagonistic response of herbicide combinations. Weeds 15:20-22.).
(§7) The following equation was used to calculate the expected activity of mixtures containing two active ingredients, A and B:
(§8) A=observed efficacy of active ingredient A at the same concentration as used in the mixture;
(§9) B=observed efficacy of active ingredient B at the same concentration as used in the mixture.

[2] = tested on: CHEAL GLY-RES (Glyphosate-resistant Chenopodium album); experiment: Greenhouse postemergence foliar herbicidal test on CHEAL GLY-RES
Experimental: as §1, §2, §3, §4, §5, §6, §7, §8, §9

[3] = tested on: COMBE = Commelina benghalensis (Dayflower); experiment: Greenhouse postemergence foliar herbicidal test on COMBE
Experimental: as §1, §2, §3, §4, §5, §6, §7, §8, §9

[4] = tested on: ERICA = Conyza canadensis (horseweed/marestail); experiment: Greenhouse postemergence foliar herbicidal test on ERICA
Experimental: as §1, §2, §3, §4, §5, §6, §7, §8, §9

[5] = tested on: ERICA GLY-RES (Glyphosate-resistant Conyza canadensis); experiment: Greenhouse postemergence foliar herbicidal test on ERICA GLY-RES
Experimental: as §1, §2, §3, §4, §5, §6, §7, §8, §9

Row | Compound | Herbicidal effect, observed (Ob), visual injury 0-100 ([1]; applied alone at 35 g/ha) [%] | Herbicidal effect, observed (Ob), visual injury 0-100 ([1]; applied alone at 70 g/ha) [%] | Herbicidal effect, observed (Ob), visual injury 0-100 ([1]; applied alone at 140 g/ha) [%] | Herbicidal effect, observed (Ob), visual injury 0-100 ([1]; applied alone at 280 g/ha) [%] | Herbicidal effect, observed (Ob), visual injury 0-100 ([2]; applied alone at 35 g/ha) [%] | Herbicidal effect, observed (Ob), visual injury 0-100 ([2]; applied alone at 70 g/ha) [%] | Herbicidal effect, observed (Ob), visual injury 0-100 ([2]; applied alone at 140 g/ha) [%] | Herbicidal effect, observed (Ob), visual injury 0-100 ([2]; applied alone at 280 g/ha) [%] | Herbicidal effect, observed (Ob), visual injury 0-100 ([3]; applied alone at 35 g/ha) [%] | Herbicidal effect, observed (Ob), visual injury 0-100 ([3]; applied alone at 70 g/ha) [%] | Herbicidal effect, observed (Ob), visual injury 0-100 ([3]; applied alone at 140 g/ha) [%] | Herbicidal effect, observed (Ob), visual injury 0-100 ([3]; applied alone at 280 g/ha) [%] | Herbicidal effect, observed (Ob), visual injury 0-100 ([4]; applied alone at 35 g/ha) [%] | Herbicidal effect, observed (Ob), visual injury 0-100 ([4]; applied alone at 70 g/ha) [%] | Herbicidal effect, observed (Ob), visual injury 0-100 ([4]; applied alone at 140 g/ha) [%] | Herbicidal effect, observed (Ob), visual injury 0-100 ([4]; applied alone at 280 g/ha) [%] | Herbicidal effect, observed (Ob), visual injury 0-100 ([5]; applied alone at 35 g/ha) [%] | Herbicidal effect, observed (Ob), visual injury 0-100 ([5]; applied alone at 70 g/ha) [%] | Herbicidal effect, observed (Ob), visual injury 0-100 ([5]; applied alone at 140 g/ha) [%] | Herbicidal effect, observed (Ob), visual injury 0-100 ([5]; applied alone at 280 g/ha) [%]
1 | COc1c(Cl)ccc(Cl)c1C(=O)O [Dicamba, 3,6-dichloro-2-methoxybenzoic acid] | 34 | 40 | 52 | 61 | 33 | 48 | 64 | 83 | 18 | 25 | 43 | 42 | 62 | 81 | 93 | 97 | 62 | 83 | 95 | 97
2 | O=C(O)CNCP(=O)(O)O [Glyphosate + AMS, N-(phosphonomethyl)glycine] | 8 | 12 | 57 | 66 | 9 | 9 | 41 | 51 | 7 | 27 | 49 | 58 | 47 | 55 | 72 | 78 | 0 | 0 | 3 | 7
